Laboratory results: paper PMC8339067 (NPJ Breast Cancer, 2021)
Like-named read-outs stand apart in the source and are kept apart here. Values belong to the molecule of their own block, whether it stands above or below them.

Key:
[1] = rats, single dose of the conjugate with trastuzumab, radiolabeled; cited from earlier work
[2] = cited from earlier work
[3] = Ribociclib plasma pharmacokinetics with T-DM1 (LC-MS/MS, noncompartmental); assay type: in vivo, human; details: for AUC: read-out: AUC24
Text: Additional samples were collected according to this same schedule after the drug was taken for at least 8 days consecutive without interruption to define its steady-state pharmacokinetics. […] The assay was validated and applied to the analysis of study samples according to the recommendations in the current U.S. Food and Drug Administration Guidance for Industry on Bioanalytical Method Validation (https://www.fda.gov/drugs/-guidance-compliance-regulatory-information/guidances-drugs). […] Actual time points were calculated as the difference between the blood sample collection time and the time that the drug was taken. The plasma concentration-time data were analyzed by noncompartmental methods using model 200 for extravascular drug input in WinNonlin Professional version 5.0.1 (Pharsight Corp, Mountain View, CA). The area under the plasma concentration-time curve from the time of dosing to the time of the last sample collected prior to administration of the next dose (AUC24) was estimated using the linear-log trapezoidal method. Total oral clearance (CL/F) was calculated as the dose divided by the AUC24 for the dose given on days 19–21. Pharmacokinetic parameters are reported as the geometric mean (geometric CV%) of the values for individual patients at each dose level. GraphPad Prism for Windows, version 8.4.3 (GraphPad Software, La Jolla, CA) was used for the statistical analysis and graphical presentation of the pharmacokinetic data.

[4] = single agent, cited from earlier work
[5] = 300 mg, dose no. 11-12 (steady state), 3 patients, geometric mean
[6] = 400 mg, dose no. 13 (steady state), 1 patient
[7] = 500 mg, dose no. 12 (steady state), 2 patients, geometric mean
[8] = 600 mg, dose no. 13 (steady state), 1 patient

SMILES: COc1cc2cc(c1Cl)N(C)C(=O)C[C@H](OC(=O)[C@H](C)N(C)C(=O)CCS)[C@]1(C)O[C@H]1[C@H](C)[C@@H]1C[C@@](O)(NC(=O)O1)[C@H](OC)/C=C/C=C(\C)C2 [DM1]
Time to complete clearance [1]: ≤ 5 days
Half-life [2]: approximately 4 days

Cmin ([3]; 300 mg, dose no. 1, 3 patients, geometric mean, lowest calibration concentration 1.0 ng/mL): < LLQ
CL/F [3, 5]: 38.6 L/h
Cmin [3, 5]: 141.7 ng/mL
Cmin ([3]; 400 mg, dose no. 1, 3 patients, geometric mean, lowest calibration concentration 1.0 ng/mL): < LLQ
CL/F [3, 6]: 47.4 L/h
Cmin [3, 6]: 125.6 ng/mL
Cmin ([3]; 500 mg, dose no. 1, 3 patients, geometric mean, lowest calibration concentration 1.0 ng/mL): < LLQ
AUC24 [3, 7]: 8,958 ng•h/mL
CL/F [3, 7]: 55.8 L/h
Cmax [3, 7]: 702.8 ng/mL
Cmin [3, 7]: 178.7 ng/mL
Cmin ([3]; 600 mg, dose no. 1, 3 patients, geometric mean, lowest calibration concentration 1.0 ng/mL): < LLQ
CL/F [3, 8]: 27.3 L/h
Cmin [3, 8]: 493.9 ng/mL
Overall geometric mean apparent oral clearance ([3]; from AUC24 at steady state, 7 patients, CV 28.1%): 42.1 L/h
AUC ([3]; human, plasma, oral, 300 mg, dose no. 1, 3 patients, geometric mean): 5330 ng·h/mL
Cmax ([3]; human, plasma, oral, 300 mg, dose no. 1, 3 patients, geometric mean, read-out: Cmax): 505 ng/mL
AUC ([3]; human, plasma, oral, 300 mg, dose no. 11-12 (steady state), 3 patients, geometric mean): 7770 ng·h/mL
Cmax ([3]; human, plasma, oral, 300 mg, dose no. 11-12 (steady state), 3 patients, geometric mean, read-out: Cmax): 608 ng/mL
AUC ([3]; human, plasma, oral, 400 mg, dose no. 1, 3 patients, geometric mean): 7980 ng·h/mL
Cmax ([3]; human, plasma, oral, 400 mg, dose no. 1, 3 patients, geometric mean, read-out: Cmax): 735 ng/mL
AUC ([3]; human, plasma, oral, 400 mg, dose no. 13 (steady state), 1 patient): 8430 ng·h/mL
Cmax ([3]; human, plasma, oral, 400 mg, dose no. 13 (steady state), 1 patient, read-out: Cmax): 871 ng/mL
AUC ([3]; human, plasma, oral, 500 mg, dose no. 1, 3 patients, geometric mean): 4830 ng·h/mL
AUC ([3]; human, plasma, oral, 600 mg, dose no. 1, 3 patients, geometric mean): 11800 ng·h/mL
Cmax ([3]; human, plasma, oral, 600 mg, dose no. 1, 3 patients, geometric mean, read-out: Cmax): 1270 ng/mL
AUC ([3]; human, plasma, oral, 600 mg, dose no. 13 (steady state), 1 patient): 22000 ng·h/mL
Cmax ([3]; human, plasma, oral, 600 mg, dose no. 13 (steady state), 1 patient, read-out: Cmax): 1740 ng/mL
Apparent oral clearance greater than with single agent ([3]; present trial versus single-agent 400 and 600 mg QD): 19–65%
SMILES: CN(C)C(=O)c1cc2cnc(Nc3ccc(N4CCNCC4)cn3)nc2n1C1CCCC1 [ribociclib]
Geometric mean apparent oral clearance ([4]; 400 mg QD, four patients, CV 59.2%): 35.3 L/h
Geometric mean apparent oral clearance ([4]; 600 mg QD, 53 patients, CV 65.7%): 25.5 L/h
